Laboratory results taken from patent US7713994B2 (Wyeth LLC, priority 2005, dated 2010).
pIC50: −log10 of the molar value. Read-outs that look alike come from different tables or passages of the source.

Assays:
cyclin B/CDK1 enzyme = molecular target: T1, cyclin B/CDK1 enzyme (Homo sapiens, UniProt P06493); assay: CDK1 ELISA kinase assay (phospho-Rb ser 795 detection); format: biochemical; conditions: In Vitro Enzyme Assays, read-out: CDK1 IC50
T1 construct: purchased New England BioLabs; host or cells: Sf9 insect cells, recombinant baculovirus
T1 sequence (P06493 whole entry): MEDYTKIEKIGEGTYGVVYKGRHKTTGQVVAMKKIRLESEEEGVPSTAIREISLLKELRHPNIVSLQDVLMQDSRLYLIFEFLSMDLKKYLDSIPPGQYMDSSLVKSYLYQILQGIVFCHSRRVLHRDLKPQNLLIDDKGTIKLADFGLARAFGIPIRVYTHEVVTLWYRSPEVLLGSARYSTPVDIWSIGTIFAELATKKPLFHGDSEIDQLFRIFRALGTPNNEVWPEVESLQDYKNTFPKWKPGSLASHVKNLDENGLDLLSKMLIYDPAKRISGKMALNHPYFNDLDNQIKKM
T1 sequence (P14635 whole entry partner): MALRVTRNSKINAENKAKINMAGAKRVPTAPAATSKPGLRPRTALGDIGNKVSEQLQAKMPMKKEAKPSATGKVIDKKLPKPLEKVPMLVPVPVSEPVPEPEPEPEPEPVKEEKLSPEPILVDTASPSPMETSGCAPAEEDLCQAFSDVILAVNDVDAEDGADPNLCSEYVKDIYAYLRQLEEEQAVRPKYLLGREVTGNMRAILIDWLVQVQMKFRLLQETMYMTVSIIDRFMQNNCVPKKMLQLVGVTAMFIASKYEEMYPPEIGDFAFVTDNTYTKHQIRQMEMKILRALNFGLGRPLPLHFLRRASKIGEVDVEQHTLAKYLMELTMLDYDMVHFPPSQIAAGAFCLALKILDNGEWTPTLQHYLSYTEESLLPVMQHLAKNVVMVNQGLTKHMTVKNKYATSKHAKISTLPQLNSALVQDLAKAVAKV
Procedure, shortened: (§1)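 Wells were coated overnight with GST-Rb C-terminal fragment, then blocked. Compound (10 ug/ml final) and cyclin/CDK enzyme from baculovirus-infected Sf9 cells with 200 μM ATP reacted 1 h at 30° C. Ser795 phosphorylation was detected by ELISA at 450 nm.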

cyclin D1/cdk 4 enzyme = molecular target: T2, cyclin D1/cdk 4 enzyme (Homo sapiens, UniProt P11802); assay: CDK4 ELISA kinase assay (phospho-Rb ser 795 detection); format: biochemical; conditions: In Vitro Enzyme Assays, 200 μM ATP, read-out: CDK4 IC50
T2 construct: made in house; host or cells: Sf9 insect cells, recombinant baculovirus
T2 sequence (P11802 whole entry, species assumed): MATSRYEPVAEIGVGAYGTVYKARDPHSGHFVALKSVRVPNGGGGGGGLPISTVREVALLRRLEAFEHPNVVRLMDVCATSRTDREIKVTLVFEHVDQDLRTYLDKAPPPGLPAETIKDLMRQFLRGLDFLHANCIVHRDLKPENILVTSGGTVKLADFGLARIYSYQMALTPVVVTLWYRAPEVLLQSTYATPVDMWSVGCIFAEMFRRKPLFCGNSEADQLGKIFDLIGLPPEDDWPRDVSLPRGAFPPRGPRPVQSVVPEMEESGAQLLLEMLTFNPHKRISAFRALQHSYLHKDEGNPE
T2 sequence (P24385 whole entry partner, species assumed): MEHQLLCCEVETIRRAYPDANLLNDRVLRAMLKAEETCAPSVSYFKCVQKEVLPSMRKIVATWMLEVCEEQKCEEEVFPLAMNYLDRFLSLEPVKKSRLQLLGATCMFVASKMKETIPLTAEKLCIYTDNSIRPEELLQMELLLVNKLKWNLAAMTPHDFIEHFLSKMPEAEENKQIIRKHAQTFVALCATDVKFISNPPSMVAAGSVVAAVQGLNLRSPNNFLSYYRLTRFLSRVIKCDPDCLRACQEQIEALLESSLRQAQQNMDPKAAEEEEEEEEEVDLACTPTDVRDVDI
Procedure, shortened: as §1

LoVo = assay: Cytotoxicity assay (SRB), LoVo; format: cell-based; conditions: Homo sapiens, LoVo, 72 h, LoVo cells, SRB, read-out: In Vitro Cellular Activity IC50 LOVO
Procedure, shortened: (§2)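 BT474 (12000 cells/well) was treated for 6 days, whereas HCT-116 (4000), LoVo (6000) and MCF-7 (6000) were treated for 3 days, all in RPMI 1640 containing 5% FBS. Surviving-cell percentage came from SRB dye binding measured at 540 nm.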

MCF-7 = assay: Cytotoxicity assay (SRB), MCF-7; format: cell-based; conditions: Homo sapiens, MCF7, 72 h, MCF-7 cells, SRB, read-out: In Vitro Cellular Activity IC50 MCF-7
Procedure, shortened: as §2

HCT-116 = assay: Cytotoxicity assay (SRB), HCT-116; format: cell-based; conditions: Homo sapiens, HCT-116, 72 h, HCT116 cells, SRB, read-out: In Vitro Cellular Activity IC50 HCT116
Procedure, shortened: as §2

BT474 = assay: Cytotoxicity assay (SRB), BT474; format: cell-based
Procedure, shortened: as §2

[1] = Homo sapiens, BT-474, 144 h, BT474 cells, SRB, 6 days; read-out: In Vitro Cellular Activity IC50 BT474

CC(=O)Oc1ccc(CN/C=C2\C(=O)NC(=O)c3ccccc32)cc1OC(C)=O [Example 47, 2-(Acetyloxy)-4-({[(Z)-(1,3-dioxo-2,3-dihydroisoquinolin-4(1H)-ylidene)methyl]amino}-methyl)phenyl acetate]
melting point: 184 to 186 °C | pIC50 (cyclin B/CDK1 enzyme): < 4.30 | pIC50 (cyclin D1/cdk 4 enzyme): 5.96 | pIC50 (LoVo; three days): 4.66 | pIC50 (MCF-7; three days): 4.70 | pIC50 (HCT-116; three days): 4.68

O=C1NC(=O)c2ccccc2/C1=C/NCc1ccc(O)cc1 [Example 61]
melting point: 272 to 273 °C | pIC50 (BT474; [1]): < 4.30 | pIC50 (cyclin B/CDK1 enzyme): 4.43 | pIC50 (cyclin D1/cdk 4 enzyme): < 4.30 | pIC50 (LoVo; three days): < 4.30 | pIC50 (MCF-7; three days): < 4.30 | pIC50 (HCT-116; three days): 4.56

O=C1NC(=O)c2ccccc2/C1=C/NCc1cccc(O)c1 [Example 63]
melting point: 261 to 262 °C | pIC50 (BT474; [1]): 4.31 | pIC50 (cyclin B/CDK1 enzyme): < 4.30 | pIC50 (cyclin D1/cdk 4 enzyme): 6.11 | pIC50 (LoVo; three days): < 4.30 | pIC50 (MCF-7; three days): < 4.30 | pIC50 (HCT-116; three days): < 4.30

CN(C)C(=O)c1ccc2c(c1)/C(=C/Nc1ccc(CN3CCCCC3)cc1)C(=O)NC2=O [Example 66, (4Z)-N,N-Dimethyl-1,3-dioxo-4-({[4-(piperidinylmethyl)phenyl]amino}methylene)-1,2,3,4-tetrahydroisoquinoline-6-carboxamide]
melting point: 266 to 267 °C (dec.) | pIC50 (BT474; [1]): 5.51 | pIC50 (cyclin B/CDK1 enzyme): < 4.30 | pIC50 (cyclin D1/cdk 4 enzyme): 4.67 | pIC50 (LoVo; three days): 5.38 | pIC50 (MCF-7; three days): 5.37 | pIC50 (HCT-116; three days): 5.47

COc1ccc(CN/C=C2\C(=O)NC(=O)c3ccc(F)cc32)cc1O [Example 68]
melting point: 200 to 201 °C | pIC50 (BT474; [1]): 4.85 | pIC50 (cyclin B/CDK1 enzyme): < 4.30 | pIC50 (cyclin D1/cdk 4 enzyme): 6.77 | pIC50 (LoVo; three days): 4.72 | pIC50 (MCF-7; three days): < 4.30 | pIC50 (HCT-116; three days): 4.82

COc1ccc2c(c1)C(=CNc1ccc(CN3CCCCC3)cc1)C(=O)NC2=O [Example 91, 6-Methoxy-4-[(4-piperidin-1-ylmethyl-phenylamino)-methylene]-4H-isoquinoline-1,3-dione]
melting point: 272 to 275 °C (dec.) | pIC50 (BT474; [1]): 4.40 | pIC50 (cyclin B/CDK1 enzyme): < 4.30 | pIC50 (cyclin D1/cdk 4 enzyme): 5.70 | pIC50 (LoVo; three days): 4.43 | pIC50 (MCF-7; three days): 4.80 | pIC50 (HCT-116; three days): 4.57

COc1ccc(CN/C=C2\C(=O)NC(=O)c3ccc(-c4ccoc4)cc32)cc1O [Example 92]
melting point: 254 to 255 °C | pIC50 (BT474; [1]): 5.70 | pIC50 (cyclin B/CDK1 enzyme): 5.60 | pIC50 (cyclin D1/cdk 4 enzyme): > 8.30 | pIC50 (LoVo; three days): 5.49 | pIC50 (MCF-7; three days): 5.42 | pIC50 (HCT-116; three days): 5.60

O=C1NC(=O)c2ccc(-c3ccoc3)cc2/C1=C/Nc1ccc(CN2CCCCC2)cc1 [Example 93]
melting point: 204 to 205 °C | pIC50 (BT474; [1]): 6.00 | pIC50 (cyclin B/CDK1 enzyme): < 4.30 | pIC50 (cyclin D1/cdk 4 enzyme): 7.43 | pIC50 (LoVo; three days): 5.74

O=C1NC(=O)c2ccc(-c3ccccc3)cc2/C1=C/Nc1ccc(CN2CCCCC2)cc1 [Example 95]
melting point: 214 to 215 °C | pIC50 (BT474; [1]): 5.52 | pIC50 (cyclin B/CDK1 enzyme): < 4.30 | pIC50 (LoVo; three days): 5.43

O=C1NC(=O)c2ccc(-c3cccc(O)c3)cc2/C1=C/Nc1ccc(CN2CCCCC2)cc1 [Example 96]
melting point: 235 to 236 °C | pIC50 (BT474; [1]): 5.47 | pIC50 (cyclin B/CDK1 enzyme): < 4.30 | pIC50 (cyclin D1/cdk 4 enzyme): 7.57 | pIC50 (LoVo; three days): 5.74 | pIC50 (MCF-7; three days): 5.70 | pIC50 (HCT-116; three days): 5.89

O=C1NC(=O)c2ccc(-c3cccnc3)cc2/C1=C/Nc1ccc(CN2CCCCC2)cc1 [Example 102]
melting point: 247 to 248 °C | pIC50 (BT474; [1]): < 4.30 | pIC50 (cyclin B/CDK1 enzyme): < 4.30 | pIC50 (cyclin D1/cdk 4 enzyme): 6.89 | pIC50 (LoVo; three days): 4.36 | pIC50 (MCF-7; three days): < 4.30 | pIC50 (HCT-116; three days): 4.94

O=C1NC(=O)c2ccc(-c3ccc(O)cc3)cc2/C1=C/Nc1ccc(CN2CCCCC2)cc1 [Example 103]
melting point: 244 to 245 °C | pIC50 (BT474; [1]): 5.43 | pIC50 (cyclin B/CDK1 enzyme): < 4.30 | pIC50 (cyclin D1/cdk 4 enzyme): 7.39 | pIC50 (LoVo; three days): 5.64

O=C1NC(=O)c2ccc(N3CCOCC3)cc2/C1=C/Nc1ccc(CN2CCCCC2)cc1 [Example 120, (4Z)-6-Morpholin-4-yl-4-({[4-(piperidin-1-ylmethyl)phenyl]amino}methylene)isoquinoline-1,3(2H,4H)-dione]
melting point: 216 to 217 °C | pIC50 (BT474; [1]): 5.10 | pIC50 (cyclin B/CDK1 enzyme): < 4.30 | pIC50 (cyclin D1/cdk 4 enzyme): 6.04 | pIC50 (LoVo; three days): 5.11 | pIC50 (MCF-7; three days): 4.68 | pIC50 (HCT-116; three days): 5.37

CN1CCN(c2ccc3c(c2)/C(=C/Nc2ccc(CN4CCCCC4)cc2)C(=O)NC3=O)CC1 [Example 123]
melting point: 192 to 193 °C | pIC50 (BT474; [1]): 5.03 | pIC50 (cyclin B/CDK1 enzyme): < 4.30 | pIC50 (cyclin D1/cdk 4 enzyme): 4.46 | pIC50 (LoVo; three days): 5.36 | pIC50 (MCF-7; three days): 5.14 | pIC50 (HCT-116; three days): 5.47

CC(=O)Nc1ccc(CN/C=C2\C(=O)NC(=O)c3ccc(Br)cc32)cc1O [Example 142, N-[4-({[(Z)-(6-Bromo-1,3-dioxo-2,3-dihydroisoquinolin-4(1H)-′ylidene)methyl]amino}methyl)-2-hydroxyphenyl]acetamide]
melting point: 252 to 253 °C | pIC50 (BT474; [1]): 6.18 | pIC50 (cyclin B/CDK1 enzyme): < 4.30 | pIC50 (cyclin D1/cdk 4 enzyme): 7.70 | pIC50 (LoVo; three days): 5.70 | pIC50 (MCF-7; three days): 4.51 | pIC50 (HCT-116; three days): 5.92

CC1CN(c2ccc(N/C=C3\C(=O)NC(=O)c4ccc([N+](=O)[O-])cc43)cc2)CC(C)N1 (stereo not drawn) [Example 235, (4Z)-4-({[4-(3,5-Dimethylpiperazin-1-yl)phenyl]amino}methylene)-6-nitroisoquinoline-1,3(2H,4H)-dione]
melting point: > 300 °C | pIC50 (BT474; [1]): 5.52 | pIC50 (cyclin B/CDK1 enzyme): 4.60 | pIC50 (cyclin D1/cdk 4 enzyme): 4.76 | pIC50 (LoVo; three days): 5.46 | pIC50 (MCF-7; three days): 5.48 | pIC50 (HCT-116; three days): 5.85

CN1CCN(c2ccc(N/C=C3\C(=O)NC(=O)c4ccc(-c5ccoc5)cc43)cn2)CC1 [Example 249, (4Z)-6-(3-Furyl)-4-({[6-(4-methylpiperazin-1-yl)pyridin-3-′yl]amino}methylene)isoquinoline-1,3(2H,4H)-dione]
melting point: 200 to 201 °C | pIC50 (BT474; [1]): 5.70 | pIC50 (cyclin B/CDK1 enzyme): < 4.30 | pIC50 (LoVo; three days): 5.62

O=C1NC(=O)c2ccc(-c3ccc(F)cc3)cc2/C1=C/Nc1ccc(CN2CCCCC2)cc1 [Example 251, (4Z)-6-(4-Fluorophenyl)-4-({[4-(piperidin-1-′ylmethyl)phenyl]amino}methylene)isoquinoline-1,3(2H,4H)-dione]
melting point: 195 to 196 °C | pIC50 (BT474; [1]): 5.96 | pIC50 (cyclin B/CDK1 enzyme): < 4.30 | pIC50 (cyclin D1/cdk 4 enzyme): 6.51 | pIC50 (LoVo; three days): 5.77 | pIC50 (MCF-7; three days): 6.26 | pIC50 (HCT-116; three days): 6.00

CCCOc1ccc(CN/C=C2\C(=O)NC(=O)c3ccc(I)cc32)nc1O [Example 510, 4-{[(6-Hydroxy-5-propoxy-pyridin-2-ylmethyl)-amino]-methylene}-6-iodo-4H-isoquinoline-1,3-dione]
melting point: 275 to 281 °C (dec.) | pIC50 (BT474; Homo sapiens, BT-474, 144 h, BT474 cells, 6 days, SRB; read-out: In Vitro Cellular Activity IC50 BT474): 6.80 | pIC50 (LoVo; 3 days): 6.38 | pIC50 (MCF-7; 3 days): 5.85 | pIC50 (HCT-116; 3 days): 6.17
